In ChEMBL document CHEMBL3352453, “Inhibitory potency of flavonoid derivatives on influenza virus neuraminidase” (Bioorg Med Chem Lett, 2014):

Legend:
[1] = Selectivity index, ratio of CC50 for MDCK cells to IC50 for influenza A virus (A/Perth/16/2009(H3N2)); assay type: functional
[2] = Cytotoxicity against MDCK cells; assay type: cell-based, Canis lupus familiaris; conditions: dog
[3] = Inhibition of influenza B virus (B/Brisbane/60/2008) neuraminidase using MUNANA substrate pre-incubated for 30 mins before substrate addition by fluorometric assay

Row | Structure (SMILES) | Ratio CC50/IC50 [1] | CC50 [2] | IC50 [3]
1 | O=c1c(O)c(-c2ccc(O)cc2)oc2cc(O)cc(O)c12 [KAEMPFEROL] | 6.8 | 581 µM | 90.8 µM
2 | O=c1c(O[C@@H]2O[C@H](CO)[C@H](O)[C@H](O)[C@H]2O)c(-c2ccc(O)c(O)c2)oc2cc(O)cc(O)c12 [HYPEROSIDE] | >6.9 | > 431 µM | 88.1 µM
3 | O=c1c(O[C@@H]2O[C@H](CO)[C@@H](O)[C@H](O)[C@H]2O)c(-c2ccc(O)c(O)c2)oc2cc(O)cc(O)c12 [ISOQUERCETIN] | >1.2 | > 431 µM | 384 µM
4 | CCOC(=O)C1=C[C@@H](OC(CC)CC)[C@H](NC(C)=O)[C@@H](N)C1 [OSELTAMIVIR] | – | – | 0.0454 µM
5 | O=c1cc(-c2ccc(O)c(O)c2)oc2cc(O[C@@H]3O[C@H](CO)[C@@H](O)[C@H](O)[C@H]3O)cc(O)c12 [GALUTEOLIN] | >6.7 | > 446 µM | 57.2 µM
6 | C[C@@H]1O[C@@H](OC[C@H]2O[C@@H](Oc3c(-c4ccc(O)c(O)c4)oc4cc(O)cc(O)c4c3=O)[C@H](O)[C@@H](O)[C@@H]2O)[C@H](O)[C@H](O)[C@H]1O [RUTIN] | >3.4 | > 328 µM | 105 µM
7 | C[C@@H]1O[C@@H](Oc2c(-c3ccc(O)c(O)c3)oc3cc(O)cc(O)c3c2=O)[C@H](O)[C@H](O)[C@H]1O [QUERCITRIN] | >4.1 | > 446 µM | 112 µM
